Data reported in article PMC7928206 (Toxicology in vitro : an international journal published in …, 2021).

Experiments:
[1] = molecular target: rat serum butyrylcholinesterase (BChE) (Rattus norvegicus, UniProt Q9JKC1); assay type: biochemical
[2] = Observed stability of the compound; conditions: also propensity to adhere to glass
[3] = molecular target: T1, rat brain acetylcholinesterase (AChE) (Rattus norvegicus, UniProt P37136); assay type: biochemical; conditions: in brain and peripheral tissues
T1 sequence (P37136 32-614): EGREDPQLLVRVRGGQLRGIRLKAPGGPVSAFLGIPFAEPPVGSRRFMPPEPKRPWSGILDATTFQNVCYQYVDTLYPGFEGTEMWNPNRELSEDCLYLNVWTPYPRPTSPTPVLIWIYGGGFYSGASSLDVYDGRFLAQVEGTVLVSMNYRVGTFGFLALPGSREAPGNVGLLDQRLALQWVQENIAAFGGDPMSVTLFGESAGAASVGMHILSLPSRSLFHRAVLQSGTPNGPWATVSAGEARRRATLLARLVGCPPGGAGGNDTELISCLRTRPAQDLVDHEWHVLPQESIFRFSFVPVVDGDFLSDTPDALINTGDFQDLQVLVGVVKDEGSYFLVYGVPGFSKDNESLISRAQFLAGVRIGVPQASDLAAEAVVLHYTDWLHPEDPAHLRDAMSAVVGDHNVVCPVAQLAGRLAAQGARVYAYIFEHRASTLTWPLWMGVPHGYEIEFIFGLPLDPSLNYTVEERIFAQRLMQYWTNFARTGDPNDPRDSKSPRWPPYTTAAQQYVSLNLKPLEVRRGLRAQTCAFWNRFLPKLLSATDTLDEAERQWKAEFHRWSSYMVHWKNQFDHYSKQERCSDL

rat serum butyrylcholinesterase (BChE), sequence (Q9JKC1 24-597): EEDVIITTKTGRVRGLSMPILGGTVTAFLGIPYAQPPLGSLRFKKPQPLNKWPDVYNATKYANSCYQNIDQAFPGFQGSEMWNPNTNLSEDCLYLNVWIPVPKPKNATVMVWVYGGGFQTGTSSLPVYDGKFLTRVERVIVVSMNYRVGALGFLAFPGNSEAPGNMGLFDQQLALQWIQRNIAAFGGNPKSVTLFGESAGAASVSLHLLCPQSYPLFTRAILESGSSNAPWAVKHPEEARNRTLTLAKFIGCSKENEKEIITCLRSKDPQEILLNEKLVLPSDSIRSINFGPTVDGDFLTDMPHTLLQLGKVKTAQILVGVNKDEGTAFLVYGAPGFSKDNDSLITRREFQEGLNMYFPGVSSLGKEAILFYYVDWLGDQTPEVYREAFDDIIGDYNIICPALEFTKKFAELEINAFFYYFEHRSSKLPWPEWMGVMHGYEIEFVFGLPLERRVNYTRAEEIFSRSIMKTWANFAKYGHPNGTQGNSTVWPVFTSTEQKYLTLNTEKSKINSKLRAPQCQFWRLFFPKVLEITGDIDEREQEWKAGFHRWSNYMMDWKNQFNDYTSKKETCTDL

COP(=O)(OC)SCn1nnc2ccccc2c1=O [Azinphos-methyl-oxon]
Serum BChE inhibition, result in words [1]: not good inhibitors of serum BChE

CCOP(=O)(OCC)Oc1cc(C)nc(C(C)C)n1 [Diazoxon]
stability, result in words [2]: particularly unstable

CCOP(=O)(OCC)Oc1nc(Cl)c(Cl)cc1Cl [Chlorpyrifos-oxon]
fold more potent AChE inhibitor than ethyl-ronnel-oxon [3]: about 70 fold
